According to PubChem BioAssay AID330 (DTP/NCI, 2004):
Inconclusive results and toxic doses are left out. The calls were made as follows: active = survival T/C of 150% or more; inactive = T/C below 125% in these data.

System: P388 leukemia ip, CD2F1 mice, survival T/C
Assay: NCI In Vivo Anticancer Drug Screen. Data for tumor model P388 Leukemia (intraperitoneal) in CD2F1 (CDF1) mice
Details: endpoint: median survival time, higher = longer survival
Outline: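 Mice carrying the transplanted tumor received test compound or vehicle. Survival was recorded in each group, and the value is the treated-group measurement divided by that of the vehicle-treated control group.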

[1] = dose: 50.0 mg/kg/injection, schedule: Q01DX009 (ip), vehicle: saline with Tween-80
[2] = dose: 100.0 mg/kg/injection, schedule: Q01DX009 (ip), vehicle: saline with Tween-80
[3] = dose: 200.0 mg/kg/injection, schedule: Q01DX009 (ip), vehicle: saline with Tween-80
[4] = dose: 50.0 mg/kg/injection, schedule: Q01DX005 (ip), vehicle: Klucel (hydroxypropylcellulose) (HPC)

Measured: T/C

Cc1ccc(C(=O)/C=C/c2ccccc2)cc1
inactive: dose: 12.5 mg/kg/injection, schedule: Q01DX009 (ip), vehicle: water 94 % of control | dose: 25.0 mg/kg/injection, schedule: Q01DX009 (ip), vehicle: saline with Tween-80 92 % of control | dose: 25.0 mg/kg/injection, schedule: Q01DX009 (ip), vehicle: water 95 % of control | [1] 108 % of control | dose: 50.0 mg/kg/injection, schedule: Q01DX009 (ip), vehicle: water 99 % of control | [2] 102 % of control | dose: 100.0 mg/kg/injection, schedule: Q01DX009 (ip), vehicle: water 104 % of control | [3] 109 % of control | dose: 200.0 mg/kg/injection, schedule: Q01DX009 (ip), vehicle: water 96 % of control

CCOC(=O)c1sc(N)c(C(=O)OCC)c1C
inactive: [2] 86 % of control

CCOC(=O)N1CC2C3CN(C(=O)OCC)C4CC3(C(=O)O)C1CC24C(=O)O
inactive: [1] 109 % of control | [2] 100 % of control | [3] 102 % of control

Oc1ccc(N=Cc2ccc3c(c2)OCO3)cc1
inactive: dose: 12.5 mg/kg/injection, schedule: Q01DX009 (ip), vehicle: other 109 % of control | dose: 25.0 mg/kg/injection, schedule: Q01DX009 (ip), vehicle: other 111 % of control | dose: 50.0 mg/kg/injection, schedule: Q01DX009 (ip), vehicle: other 94 % of control | dose: 100.0 mg/kg/injection, schedule: Q01DX009 (ip), vehicle: other 113 % of control | dose: 200.0 mg/kg/injection, schedule: Q01DX009 (ip), vehicle: other 111 % of control | dose: 400.0 mg/kg/injection, schedule: Q01DX009 (ip), vehicle: other 108 % of control

COc1ccc2c3c([nH]c2c1)[C@H](CC(C)(C)O)N1C(=O)[C@@H]2CCCN2C(=O)[C@]1(O)[C@H]3O
inactive: dose: 6.25 mg/kg/injection, schedule: Q01DX005 (ip), vehicle: Klucel (hydroxypropylcellulose) (HPC) 100 % of control | dose: 12.5 mg/kg/injection, schedule: Q01DX005 (ip), vehicle: Klucel (hydroxypropylcellulose) (HPC) 105 % of control | dose: 25.0 mg/kg/injection, schedule: Q01DX005 (ip), vehicle: Klucel (hydroxypropylcellulose) (HPC) 108 % of control | [4] 116 % of control

CCc1ccc(S(=O)(=O)O)cc1
inactive: [1] 100 % of control | [2] 94 % of control | [3] 98 % of control

COC(=O)C1(O)OCC(O)C(O)C1O (centres undefined)
inactive: dose: 50.0 mg/kg/injection, schedule: Q01DX005 (ip), vehicle: saline 100 % of control | dose: 100.0 mg/kg/injection, schedule: Q01DX005 (ip), vehicle: saline 105 % of control | dose: 200.0 mg/kg/injection, schedule: Q01DX005 (ip), vehicle: saline 100 % of control

O=[N+]([O-])/C=C/c1ccccc1
inactive: dose: 5.0 mg/kg/injection, schedule: Q01DX009 (ip), vehicle: saline sonified 100 % of control | dose: 10.0 mg/kg/injection, schedule: Q01DX009 (ip), vehicle: saline sonified 100 % of control | dose: 20.0 mg/kg/injection, schedule: Q01DX009 (ip), vehicle: saline sonified 100 % of control

Cc1ccc(-c2cc(N)n(-c3nnc(-c4ccccc4)c(-c4ccccc4)n3)n2)cc1
inactive: dose: 50.0 mg/kg/injection, schedule: Q01DX005 (ip), vehicle: saline with Tween-80 105 % of control | dose: 100.0 mg/kg/injection, schedule: Q01DX005 (ip), vehicle: saline with Tween-80 105 % of control | dose: 200.0 mg/kg/injection, schedule: Q01DX005 (ip), vehicle: saline with Tween-80 93 % of control

O/N=C1\CCCCC1C(O)c1c(Cl)cccc1Cl (centres undefined)
inactive: [1] 102 % of control | [2] 103 % of control | [3] 96 % of control

CN(C)[C@@H]1C(=O)C(C(=O)NCNCCCC(=O)O)=C(O)[C@@]2(O)C(=O)C3=C(O)c4c(O)cccc4[C@@](C)(O)[C@H]3C[C@@H]12
inactive: dose: 100.0 mg/kg/injection, schedule: Q04DX003 (ip), vehicle: saline with Tween-80 104 % of control | dose: 200.0 mg/kg/injection, schedule: Q04DX003 (ip), vehicle: saline with Tween-80 100 % of control | dose: 400.0 mg/kg/injection, schedule: Q04DX003 (ip), vehicle: saline with Tween-80 95 % of control

CCOC(=O)C1(c2ccccc2)SC(C(=O)OCC)(c2ccccc2)S1 (centres undefined)
inactive: dose: 100.0 mg/kg/injection, schedule: Q04DX003 (ip), vehicle: saline 112 % of control | dose: 200.0 mg/kg/injection, schedule: Q04DX003 (ip), vehicle: saline 107 % of control | dose: 400.0 mg/kg/injection, schedule: Q04DX003 (ip), vehicle: saline 103 % of control

CC(C)N(CC#CCO)CCO
inactive: dose: 60.0 mg/kg/injection, schedule: Q01DX005 (ip), vehicle: saline 99 % of control | dose: 120.0 mg/kg/injection, schedule: Q01DX005 (ip), vehicle: saline 100 % of control | dose: 240.0 mg/kg/injection, schedule: Q01DX005 (ip), vehicle: saline 99 % of control

Cc1cccc(CCl)n1
inactive: dose: 50.0 mg/kg/injection, schedule: Q01DX009 (ip), vehicle: saline 90 % of control | dose: 100.0 mg/kg/injection, schedule: Q01DX009 (ip), vehicle: saline 107 % of control | dose: 200.0 mg/kg/injection, schedule: Q01DX009 (ip), vehicle: saline 105 % of control

COc1cc2c(c3c1c(=O)c1ccc(F)cc1n3C)C=CC(C)(C)O2
inactive: [4] 98 % of control | dose: 100.0 mg/kg/injection, schedule: Q01DX005 (ip), vehicle: Klucel (hydroxypropylcellulose) (HPC) 108 % of control | dose: 200.0 mg/kg/injection, schedule: Q01DX005 (ip), vehicle: Klucel (hydroxypropylcellulose) (HPC) 109 % of control

COC(=O)/C=c1/s/c(=C\C(C)=N)[nH]c1=O
inactive: dose: 60.0 mg/kg/injection, schedule: Q01DX005 (ip), vehicle: saline with Tween-80 90 % of control | dose: 120.0 mg/kg/injection, schedule: Q01DX005 (ip), vehicle: saline with Tween-80 89 % of control

O=C(CCCSCCCl)Nc1c([N+](=O)[O-])cc([N+](=O)[O-])cc1S(=O)(=O)O
inactive: dose: 3.13 mg/kg/injection, schedule: Q04DX003 (ip), vehicle: DMSO 110 % of control | dose: 6.25 mg/kg/injection, schedule: Q04DX003 (ip), vehicle: DMSO 111 % of control | dose: 50.0 mg/kg/injection, schedule: Q04DX003 (ip), vehicle: DMSO 118 % of control | dose: 100.0 mg/kg/injection, schedule: Q04DX003 (ip), vehicle: olive oil, sesame oil, peanut oil 120 % of control | dose: 150.0 mg/kg/injection, schedule: Q04DX003 (ip), vehicle: DMSO 114 % of control

OC1CC2c3ccccc3C1C1CCCCN21 (centres undefined)
inactive: dose: 12.5 mg/kg/injection, schedule: Q04DX002 (ip), vehicle: saline 106 % of control | dose: 25.0 mg/kg/injection, schedule: Q04DX002 (ip), vehicle: saline 109 % of control | dose: 50.0 mg/kg/injection, schedule: Q04DX002 (ip), vehicle: saline 106 % of control

COc1ccc2c(c1)C1(C)CC(OC1=O)C2=O (centres undefined)
inactive: dose: 25.0 mg/kg/injection, schedule: Q01DX001 (ip), vehicle: Klucel (hydroxypropylcellulose) (HPC) 99 % of control | dose: 50.0 mg/kg/injection, schedule: Q01DX001 (ip), vehicle: Klucel (hydroxypropylcellulose) (HPC) 100 % of control | dose: 100.0 mg/kg/injection, schedule: Q01DX001 (ip), vehicle: Klucel (hydroxypropylcellulose) (HPC) 100 % of control

Cc1ccc(S(=O)(=O)N(CCc2ccc(Cl)cc2)S(=O)(=O)c2ccc(C)cc2)cc1
inactive: dose: 50.0 mg/kg/injection, schedule: Q01DX009 (ip), vehicle: Klucel (hydroxypropylcellulose) (HPC) 109 % of control | dose: 100.0 mg/kg/injection, schedule: Q01DX009 (ip), vehicle: Klucel (hydroxypropylcellulose) (HPC) 94 % of control | dose: 200.0 mg/kg/injection, schedule: Q01DX009 (ip), vehicle: Klucel (hydroxypropylcellulose) (HPC) 93 % of control
